Measured values from article PMC12483151, “Late-Stage Functionalization of Lysine to Organelle-Targeting Fluorescent Probes” (JACS Au, 2025).
Where “and” joins values, the source holds several entries; their conditions need not be identical. Identical values can stand only once. Where a SMILES comes first, the peptide text is derived from it.

Assays:
E. coli = settings: MHB, 37 °C, 18 h, OD600; for Discrete-well MIC (CLSI definition, two-fold dilutions): E. coli ~5 x 10^5 CFU/mL, lowest concentration with ≤ 10 % growth; for Extrapolated (interpolated) MIC (4-parameter logistic fit): E. coli, concentration at 10 % growth by curve fit
Description: Plates were sealed and incubated
(1 picture or pasted object on this page, not shown here)

T-47D cells [1] = test system: T-47D cells
T-47D cells [2] = assay: Mitochondrial colocalization imaging with MitoTracker Red; type: cell-based, Human; settings: T-47D live cells
Description: Cells were plated in an IBIDI 8-well glass bottom chamber at a density of 25,000 cells per well in media and allowed to adhere overnight at 37 °C, 5% CO2. Fresh 10 mM stock solutions of probes were prepared in DMSO on the day of experimentation. Working solutions of all compounds in media were prepared on the day of experimentation. Culture media was removed from the wells, and 200 mL of 100 nM probe was added to the desired wells and placed in an incubator for 30 min. Media was removed from the wells, and 200 mL of 100 nM MitroTracker-Red FM (ThermoFisher, M22425) was added to the desired wells and placed in an incubator for 15 min. Staining media was removed, and cells were washed with 200 μL of PBS for 5 min (repeated 3 times). PBS was removed and replaced with 200 mL of fresh medium, followed by immediate imaging. Five images were captured for each well. Colocalization analysis for Pearson’s R (R) and Mander’s Colocalization Coefficient (MCC) was conducted using the EzColocalization Plugin for ImageJ.
Colocalization studies – EzColocalization Details. Co-localization studies were done using
EzColocalization. EzColocalization is an ImageJ Application Program Interface (APIs)-an open-source
plugin, where individual cells can be highlighted and colocalization studies can be run across three
channels. The metric matrix for TOS (linear scaling) in the heatmap quantifies colocalization. FT […]

Q: What does the source list for `CC(=O)N[C@@H](CCCCN)C(=O)N[C@@H](CCCNC(=N)N)C(=O)N[C@@H](Cc1c[nH]c2ccccc12)C(=O)N[C@@H](CCCNC(=N)N)C(=O)N[C@@H](Cc1c[nH]c2ccccc12)C(N)=O` [2g] (Ac-KRWRW-NH2)?
A: Discrete-well MIC (CLSI definition, two-fold dilutions) (E. coli): 125 µM; Extrapolated (interpolated) MIC (4-parameter logistic fit) (E. coli): 0.0693 mM and 0.069 ± 0.06 mM

Q: `COc1ccc(C(=O)c2c(-c3ccc(OC)cc3)cc(-c3ccc(OC)cc3)[n+](CCCC[C@H](NC(=O)[C@H](CC(=O)O)NC(=O)[C@H](CC(C)C)NC(C)=O)C(=O)N[C@H](C(=O)N[C@@H](CC(N)=O)C(=O)N[C@@H](CCCNC(=N)N)C(N)=O)C(C)C)c2-c2ccc(OC)cc2)cc1` [5b] was tested. Which “Percentage cell death (average)” value (T-47D cells [1]; 100 nM, 1 h, Annexin V/PI, n = 3 biological replicates, one average given for 4f and 5b) did it give?
A: 4.6%

Q: Which results are given for `COc1ccc(C(=O)c2c(-c3ccc(OC)cc3)cc(-c3ccc(OC)cc3)[n+](CCCC[C@H](NC(C)=O)C(=O)N[C@@H](CCCNC(=N)N)C(=O)N[C@@H](Cc3c[nH]c4ccccc34)C(=O)N[C@@H](CCCNC(=N)N)C(=O)N[C@@H](Cc3c[nH]c4ccccc34)C(N)=O)c2-c2ccc(OC)cc2)cc1` [5g]?
A: Discrete-well MIC (CLSI definition, two-fold dilutions) (E. coli): 125 µM; Extrapolated (interpolated) MIC (4-parameter logistic fit) (E. coli): 0.0715 mM and 0.072 ± 0.01 mM

Q: How did the “Pearson's coefficient (colocalization with MitoTracker Red)” value (T-47D cells [2]; 100 nM probe, 100 nM MitoTracker Red, EzColocalization/ImageJ, 1 = perfect colocalization, -1 = none) turn out when `COc1cccc2c1C(=O)c1c(O)c3c(c(O)c1C2=O)C[C@@](O)(C(=O)CO)C[C@@H]3O[C@H]1C[C@H](N)[C@H](O)[C@H](C)O1` [Dox, doxorubicin] was run?
A: 0.397

Q: And the subcellular localization (T-47D cells [2]; 100 nM, co-stained with MitoTracker Red)?
A: primarily colocalized with the nucleus

Q: And the “survival less than DOX-Py” value (T-47D cells [1]; 100 nM, 1 h, Annexin V/PI, n = 3 biological replicates)?
A: 20%

Q: And the survival rate (T-47D cells [1]; Annexin V/PI flow cytometry (100 nM, 1 h per Figure S25))?
A: 40%
